Assay results taken from patent EP0055702B1, “Antithrombotic treatment” (priority 1980, dated 1982).
Like-named read-outs stand apart in the source and are kept apart here.

Experiments:
Fibrinogen = biological target: T1, Fibrinogen (Homo sapiens, UniProt P02671+P02675+P02679); test: Fibrinogen assay, Example 4; assay type: biochemical; settings: Control 218; for Fibrogen: solution D
T1 construct: from tissue; host or cells: human plasma
T1 sequence (P02671 20-629 limits assumed): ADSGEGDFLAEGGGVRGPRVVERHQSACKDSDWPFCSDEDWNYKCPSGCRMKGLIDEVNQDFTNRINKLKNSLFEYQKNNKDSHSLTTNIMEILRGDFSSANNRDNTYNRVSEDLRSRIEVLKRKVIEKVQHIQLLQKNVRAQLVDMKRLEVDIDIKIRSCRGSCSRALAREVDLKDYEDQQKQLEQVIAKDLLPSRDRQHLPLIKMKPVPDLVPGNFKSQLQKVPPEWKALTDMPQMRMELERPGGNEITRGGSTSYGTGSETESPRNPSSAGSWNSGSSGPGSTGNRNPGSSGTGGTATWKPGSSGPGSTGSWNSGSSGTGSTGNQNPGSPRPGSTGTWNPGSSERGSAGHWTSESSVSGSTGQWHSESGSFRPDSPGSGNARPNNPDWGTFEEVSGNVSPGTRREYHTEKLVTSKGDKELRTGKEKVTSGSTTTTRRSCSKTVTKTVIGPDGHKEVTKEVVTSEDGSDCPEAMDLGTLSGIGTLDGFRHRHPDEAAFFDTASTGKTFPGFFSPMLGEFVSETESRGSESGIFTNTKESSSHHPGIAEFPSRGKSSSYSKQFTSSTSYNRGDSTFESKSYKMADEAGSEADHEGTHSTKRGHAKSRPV
T1 sequence (P02675 31-491): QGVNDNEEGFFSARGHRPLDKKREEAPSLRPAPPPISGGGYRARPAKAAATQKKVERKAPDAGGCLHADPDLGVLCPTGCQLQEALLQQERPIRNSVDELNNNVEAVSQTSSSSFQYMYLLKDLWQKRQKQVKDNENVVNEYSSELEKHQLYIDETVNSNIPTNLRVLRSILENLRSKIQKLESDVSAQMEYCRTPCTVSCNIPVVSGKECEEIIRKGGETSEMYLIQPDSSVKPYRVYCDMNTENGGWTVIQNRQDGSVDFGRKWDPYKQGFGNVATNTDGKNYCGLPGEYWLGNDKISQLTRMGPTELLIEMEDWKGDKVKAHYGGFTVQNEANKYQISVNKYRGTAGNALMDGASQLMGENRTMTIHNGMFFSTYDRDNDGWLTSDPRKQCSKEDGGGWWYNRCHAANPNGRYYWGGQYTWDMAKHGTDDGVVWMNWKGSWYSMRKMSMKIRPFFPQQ
T1 sequence (P02679 27-453): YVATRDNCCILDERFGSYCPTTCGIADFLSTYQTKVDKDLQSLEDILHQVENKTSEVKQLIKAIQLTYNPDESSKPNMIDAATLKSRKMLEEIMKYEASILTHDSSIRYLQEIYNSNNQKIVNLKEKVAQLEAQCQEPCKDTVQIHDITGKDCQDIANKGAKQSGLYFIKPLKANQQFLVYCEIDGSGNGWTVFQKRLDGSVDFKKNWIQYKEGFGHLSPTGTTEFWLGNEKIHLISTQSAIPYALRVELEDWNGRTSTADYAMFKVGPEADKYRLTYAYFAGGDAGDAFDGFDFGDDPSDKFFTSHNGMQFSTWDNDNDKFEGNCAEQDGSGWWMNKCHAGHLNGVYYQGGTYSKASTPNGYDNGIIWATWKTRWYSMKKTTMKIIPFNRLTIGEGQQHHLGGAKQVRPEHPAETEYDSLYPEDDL
Source text: The evaluation procedure used is that described in "Human Blood Coagulation, Haemostasis and Thrombosis", edited by Rosemary Biggs, published by Blackwell Scientific Publications, Oxford, England (2nd Edition), pages 670-705, 1976. […]

[1] = test system: thrombus formation in the jugular vein; test: Anti-venous thrombotic effect, 125I fibrinogen technique in rabbits; assay type: in vivo
Source text: Also, a thrombosis is detectable, for example, from a patient's conditions symptomatically perceivable by a skilled medical practitioner and well known to the art of medicine. Objectively, various methods are available, including venography, impedance plethysmography, doppler ultrasound and the 1251-fibrinogen test (see, for example, the articles by Kakkar, "Archives of Surgery", 104, page 152 (1972) and by Kelton, J.G. et al, Journal of Clinical Investigation, Vol. 62, pgs. 892-895, (1978)).
The anti-venous thrombotic effect of sodium bisulphite was evaluated in rabbits by using the 1^125 fibrinogen technique described above.
Each rabbit was continuously infused with aqueous sodium bisulphite solution at the rate of 460 mg/kg per hr. (2.97 grams) (animal body weight 2.3 kg).
After 5 hours, the animal was sacrificed and the radioactive fibrinogen accumulated in the damaged jugular vein was determined. The radioactivity in the contra-lateral (undamaged) jugular vein was also determined, to serve as a control. Concurrently, another rabbit was subjected to the same procedure, but was given only a standard sodium chloride solution, as a control.

human plasma = test: Blood coagulation factors by standard procedures (Biggs), human plasma; assay type: biochemical; settings: 5 mg/ml
Protocol: The effect of U.S.P. grade sodium bisulphite on blood coagulation factors was evaluated by standard procedures (Biggs) and the results are shown in Table III below.
The effect is directly proportional to dose.

blood = test: Storage of human blood samples with added sodium bisulphite solution; settings: about 4 cc blood plus about 10 drops of 10 weight percent solution; about 2) years at ambient temperatures
Protocol: Samples of about 4 cc each of blood were prepared. To each of these was added about 10 drops of a 10 weight percent solution of sodium bisulphite in distilled water. Each sample was then sealed into a glass vial.

[2] = PT of coded and various agents, Example 6; assay type: biochemical
Source text: A variety of agents were coded and evaluated under a code designation. Among these compounds, thiouracil, mercaptosuccinic acid, thiosemicarbazide, phenothiazine and sodium thiosulphate were included, so as to compare sodium bisulphite with certain compounds mentioned in USP 4,148,855.
After determination of PT and PTT values, the coded compounds were decoded.
The results are shown in Table V, where mean values of 5 replications in each case are reported. […] This procedure was repeated with some additional compounds on two different days using a different control on each day.

## Sodium bisulphite
Fibrinogen; Sodium bisulphite 0.01 mg/ml
  Fibrogen: 222 mg%
Fibrinogen; Sodium bisulphite 0.05 mg/ml
  Fibrogen: 228 mg%
Fibrinogen; Sodium bisulphite 0.1 mg/ml
  Fibrogen: 217 mg%
Fibrinogen; Sodium bisulphite 0.5 mg/ml
  Fibrogen: 190 mg%
Fibrinogen; Sodium bisulphite 1.0 mg/ml
  Fibrogen: 185 mg%
Fibrinogen; Sodium bisulphite 5.0 mg/ml
  Fibrogen: 130 mg%
Fibrinogen; chemical grade sodium bisulphite 0.01 mg/ml
  Fibrinogen: 228 mg%
Fibrinogen; chemical grade sodium bisulphite 0.05 mg/ml
  Fibrinogen: 245 mg%
Fibrinogen; chemical grade sodium bisulphite 0.1 mg/ml
  Fibrinogen: 218 mg%
Fibrinogen; chemical grade sodium bisulphite 0.5 mg/ml
  Fibrinogen: 182 mg%
Fibrinogen; chemical grade sodium bisulphite 1.0 mg/ml
  Fibrinogen: 184 mg%
Fibrinogen; chemical grade sodium bisulphite 5.0 mg/ml
  Fibrinogen: 119 mg%
[1]; continuous infusion 460 mg/kg per hr, 5 hours, control given sodium chloride solution
  radioactivity (radioactive fibrinogen) in damaged jugular vein, control rabbit relative to infused rabbit: 7 times
[1]; other rabbits similarly evaluated, apparently overdosing
  death of other rabbits during infusion: died before the experiment was completed
Human plasma
  coagulation of human plasma: completely disrupted
blood
  coagulation of stored blood samples: have not coagulated
[2]
  PT: 22.42 s
[2]; Table V, coded agents 0.5 mg/ml, Control 12.92
  PT: 23.06 s
